Results on one molecule are retold here after US20250299796A1, “COMPOSITIONS AND METHODS FOR TREATING AND/OR CHARACTERIZING HEMATOLOGICAL MALIGNANCIES AND PRECURSOR CONDITIONS” (Dana-Farber Cancer Institute, Inc., priority 2021, published 2025).

Data set [1] relates to patients with high-risk smoldering multiple myeloma (SMM). Nature of the data set: Phase II trial (E-PRISM): safety and tolerability, adverse events graded by CTCAE v4.0. The note with it: in vivo. The protocol: In the treatment schema a cycle is defined as 28 consecutive days. In cycles 1 and 2, 10 mg/kg of intravenous push Elotuzumab were administered on days 1, 8, 15, and 22. In cycles 3-4, it was administered on days 1 and 15. A 25 mg dose of oral Lenalidomide was administered on days 1-21 of each cycle. In Arm A, 40 mg of oral Dexamethasone were administered on days 1, 8, 15, and 22 in cycles 1 and 2 and on days 1, 8, and 15 in cycles 3-8. Patients on maintenance treatment (cycles 9-24) were administered 20 mg/kg of intravenous push Elotuzumab on day 1 and 15 mg oral Lenalidomide on days 1-21. All patients received thromboprophylaxis.
Toxicities were monitored throughout the study and for up to 30 days after the last dose of the study drug. Adverse events (AEs) were graded according to the National Cancer Institute Common Terminology Criteria for Adverse Events (CTCAE; version 4.0; Bethesda, MD). In addition, neuropathy symptoms were assessed using the FACT/GOG-Neuropathy questionnaire (Version 4.0). Efficacy was measured using the IWMG criteria for response^31.
Forty-nine patients experienced at least one toxicity while on study with worst grades of 1-mild (n=0), 2-moderate (n=11/51, 22%), and 3-severe (n=29/51, 57%), 4-life threatening (n=7/51, 14%), and 5-fatal (n=2/51, 4%). […]

For data set [2], the system named is immune system in patients with SMM. The following applies: trial of Lenalidomide and Dexamethasone; cited from earlier work.

As for `C[C@@H]1C[C@H]2[C@@H]3CCC4=CC(=O)C=C[C@]4(C)[C@@]3(F)[C@@H](O)C[C@]2(C)[C@@]1(O)C(=O)CO` [Dexamethasone], the “Effect of Dexamethasone dose on type or frequency of treatment-related toxicities” value in data set [1] is given as “no effect”. Besides, the “Effect of once weekly high-dose Dexamethasone on the immune system” value in data set [2] is recorded as “does not have a detrimental effect”.
